Data as given in PMC5579575, “Study of Alzheimer’s Disease-Related Biophysical Kinetics with a Microslit-Embedded Cantilever Sensor in a Liquid Environment” (Sensors (Basel, Switzerland), 2017).

Key:
[1] = biological target: monoclonal 6E10 antibody (mAb); assay: Binding affinity (KD) of Aβ42-mAb by Langmuir isotherm fit of slit cantilever responses; settings: global fit of Langmuir isotherm (χ^2 = 0.010958), 1:1 binding; fractional saturation vs. Aβ concentration; 1 μg/mL assumed fully saturated; PBS; read-out: equilibrium dissociation constant (KD)
Procedure: To detect the target molecules, a commercial monoclonal 6E10 antibody (mAb, 10 μg/mL, Covance, Princeton, NJ, USA) was immobilized on the cantilever surfaces by using a conventional coupling method. The mAb is known to include a specific binding ligand with the first 1–16 sequence of human Aβ peptides. Prior to antibody immobilization, the slit cantilever with a 50 nm thick Au surface was cleaned with piranha solution (a 4:1 ratio of H2SO4 to H2O2) and rinsed with deionized water (DI). In addition, 10 mM of 11-Mercaptoundecanoic acid (11-MUC, Sigma-Aldrich, St. Louis, MO, USA) diluted in ethanol was treated for 12 h on the Au surface of the sensor to establish a self-assembled monolayer. […]
To evaluate the sensing performance of the slit cantilever in a liquid environment, quantification of the synthetic Aβ42 peptide, which has an identical sequence of 42-residue amino acids associated with human AD, was investigated in a physiological-level concentration. […] The changes of resonant frequencies in PBS were measured before and after the recognition interactions between mAb and target analytes. […] The average values of the frequency shifts were measured as −15.5, −56.5, −119.5, −472.5, −774 and −799 Hz for the concentrations from 10 pg/mL to 1 μg/mL, respectively. […]

Aβ peptides = settings: conventional surface plasmon resonance (SPR), ref [27]; cited from earlier work
Procedure: Meanwhile, Equation (5) predicts the hyperbolic plot of fractional saturation ([AB]/[B]) vs. Aβ concentration. This curve follows isotherms for relatively obscure thermodynamic reasons. […] The acquired value is consistent with those of previous studies (1.2 nM) using conventional surface ...

[2] = test system: monoclonal 6E10 antibody (mAb); assay: Quantitative detection of Aβ42 with mAb-immobilized slit cantilever (resonant frequency shift); type: binding; settings: for frequency shift (average): in 10 mM PBS, 30 min, rinsed with PBS, mAb 10 μg/mL immobilized
Procedure: To detect the target molecules, a commercial monoclonal 6E10 antibody (mAb, 10 μg/mL, Covance, Princeton, NJ, USA) was immobilized on the cantilever surfaces by using a conventional coupling method. The mAb is known to include a specific binding ligand with the first 1–16 sequence of human Aβ peptides. Prior to antibody immobilization, the slit cantilever with a 50 nm thick Au surface was cleaned with piranha solution (a 4:1 ratio of H2SO4 to H2O2) and rinsed with deionized water (DI). In addition, 10 mM of 11-Mercaptoundecanoic acid (11-MUC, Sigma-Aldrich, St. Louis, MO, USA) diluted in ethanol was treated for 12 h on the Au surface of the sensor to establish a self-assembled monolayer. The MUC-modified slit cantilever was immersed in a mixture of 1-ethyl-3-(3-dimethylaminopropyl) carbodiimide (EDC, 80 mM, Sigma-Aldrich) and N-hydroxysuccinimide (NHS, 20 mM, Sigma-Aldrich) dissolved for 2 h in 10 mM of phosphate-buffered solution (PBS, pH = 7.4). Then, mAb, which was diluted as 10 µg/mL in 10 mM PBS, was immobilized on the functionalized surface of the slit cantilever for 2 h, followed by rinsing with PBS and DI.
To evaluate the sensing performance of the slit cantilever in a liquid environment, quantification of the synthetic Aβ42 peptide, which has an identical sequence of 42-residue amino acids associated with human AD, was investigated in a physiological-level concentration. Prior to conducting biomolecular interactions, a drift of resonant frequency was verified and stabilized until steady state (Figure S2). The resonance responses reached its steady state within 200 min and the frequency maintained for 60 min with fluctuations up to 4 Hz which can be regarded as a noise level. Detection of target molecules with the slit cantilever is based on the capturing by immobilized mAb on the cantilever beam. It occurs in the measurement of the frequency shift due to mass loading on the surface. Firstly, the specific antibody (mAb) of 10 μg/mL was chemically immobilized on the 60 μm × 280 μm dimension of the Au surface (50 nm thickness) of the slit cantilever. The Aβ42 peptide was diluted with a ten-fold difference from 10 pg/mL to 1 μg/mL in 10 mM PBS. The prepared Aβ42 solution was individually introduced into the slit cantilever for 30 min, followed by rinsing with PBS. The changes of resonant frequencies in PBS were measured before and after the recognition interactions between mAb and target analytes. The resonant frequency decreased according to the concentration increment of target analytes owing to mass adsorption of Aβ42 to the specific binding site of the immobilized mAb. The average values of the frequency shifts were measured as −15.5, −56.5, −119.5, −472.5, −774 and −799 Hz for the concentrations from 10 pg/mL to 1 μg/mL, respectively. As noted earlier, these responses were satisfied with at least three-sigma significance in terms of the signal-to-noise ratio of the sensors.

Substance	Kd [1]	Kd (Aβ peptides)	frequency shift (average) ([2]; 10 pg/mL Aβ42)	frequency shift (average) ([2]; 100 pg/mL Aβ42 (ten-fold dilution series 10 pg/mL to 1 μg/mL))	frequency shift (average) ([2]; 1 ng/mL Aβ42 (ten-fold dilution series 10 pg/mL to 1 μg/mL))	frequency shift (average) ([2]; 10 ng/mL Aβ42 (ten-fold dilution series 10 pg/mL to 1 μg/mL))	frequency shift (average) ([2]; 100 ng/mL Aβ42 (ten-fold dilution series 10 pg/mL to 1 μg/mL))	frequency shift (average) ([2]; 1 μg/mL Aβ42)	sensitivity ([2]; dynamic range 100 pg/mL to 100 ng/mL Aβ42, logarithmic concentration)	resonant frequency response, negative control ([2]; PSA protein as control experiment, mAb-immobilized cantilever)
Aβ42: synthetic Aβ42 peptide, which has an identical sequence of 42-residue amino acids associated with human AD (Sigma-Aldrich)	1.75 nM	1.2 nM	−15.5 Hz	−56.5 Hz	−119.5 Hz	−472.5 Hz	−774 Hz	−799 Hz	330 Hz/decade	
PSA: prostate cancer antigen (PSA) protein introduced as a control experiment										no obvious responses were observed
